According to patent publication US9758492B2, “IDO inhibitors” (Bristol-Myers Squibb Company, priority 2013, dated 2017):

What follows are molecules tested against T1, Human IDO1 (Homo sapiens, UniProt P14902) (assay: IDO Kynurenine Assay with Human IDO1/HEK293 Cells). Conditions: read-out: HEK human IDO-1 (IC50).
T1 construct: expressed in transfected cells; host or cells: HEK293
Assay type: cell-based
In short: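 HEK293 cells stably expressing human IDO1, in phenol red-free RPMI/10% FBS, exposed to compound for 20 h at 37 °C. Stopped with 0.2% TCA (50 °C, 30 min); kynurenine in supernatant detected with Ehrlich reagent, absorbance 490 nm.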

T1 sequence (P14902 whole entry): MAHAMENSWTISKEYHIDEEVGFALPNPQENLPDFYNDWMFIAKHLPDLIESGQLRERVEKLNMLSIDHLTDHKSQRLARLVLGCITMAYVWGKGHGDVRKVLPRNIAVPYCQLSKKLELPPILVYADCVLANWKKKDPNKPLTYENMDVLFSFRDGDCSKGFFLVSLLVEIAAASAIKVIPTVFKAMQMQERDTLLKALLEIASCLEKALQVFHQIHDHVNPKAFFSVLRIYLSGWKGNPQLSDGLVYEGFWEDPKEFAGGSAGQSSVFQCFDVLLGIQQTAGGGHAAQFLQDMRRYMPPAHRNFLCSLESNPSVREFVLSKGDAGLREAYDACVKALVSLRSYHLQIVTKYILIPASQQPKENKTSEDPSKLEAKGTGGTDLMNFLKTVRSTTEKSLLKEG

SMILES | IC50 [nM]
O=C(Nc1ccc(C2CC2)c(F)c1)Nc1cc(-c2ccccc2-c2nnn[nH]2)ccc1N(CCC(F)(F)F)Cc1ccc(F)cc1C(F)(F)F [Example 352, 1-(4-cyclopropyl-3-fluorophenyl)-3-(4-((4-fluoro-2-(trifluoro-methyl)benzyl) (3,3,3-trifluoropropyl)amino)-2′-(1H-tetrazol-5-yl)-[1,1′-biphenyl]-3-yl)urea] | 220
Cc1ccc(NC(=O)Nc2cc(-c3ccccc3-c3nnn[nH]3)ccc2N(CC(C)C)C2CCOCC2)cc1 [Example 379] | 30
C=CC(c1ccccc1)c1cc(-c2ccccc2-c2nnn[nH]2)cc(NC(=O)Nc2ccccc2F)c1NCC(C)C (stereo not shown) [Example 357, 1-(2-fluorophenyl)-3-(4-(isobutylamino)-5-(1-phenylallyl)-2′-(1H-tetrazol-5-yl)-[1,1′-biphenyl]-3-yl)urea] | 320
O=C(Nc1ccc(C2CC2)c(F)c1)Nc1cc(-c2ccccc2-c2nnn[nH]2)ccc1N(CCC(F)(F)F)Cc1ccc(OC(F)(F)F)cc1 [Example 353, 1-(2′-(1H-tetrazol-5-yl)-4-((4-(trifluoromethoxy)benzyl)(3,3,3-trifluoro-propyl)amino)-[1,1′-biphenyl]-3-yl)-3-(4-cyclopropyl-3-fluorophenyl)urea] | 2.37
CC(C)CN(CC(C)C)c1ccc(-c2ccc(Cl)cc2C(=O)O)cc1NC(=O)Nc1ccc(C#N)nc1 [Example 359, 4-Chloro-3′-(3-(6-cyanopyridin-3-yl)ureido)-4′-(diisobutylamino)-[1,1′-biphenyl]-2-carboxylic acid] | 550
CC(C)CN(c1ccc(-c2cc(F)ccc2C(=O)O)cc1NC(=O)Nc1cc(C(F)(F)F)no1)C1CCCCC1 [Example 400] | 5.35
CC(C)CN(c1c(F)cc(-c2ccccc2C(=O)O)cc1NC(=O)Nc1ccc(Cl)cc1F)C1CCCCC1 [Example 438] | 1.67
CC(C)CN(c1c(F)cc(-c2ccccc2-c2nnn[nH]2)cc1NC(=O)Nc1ccccc1F)C1CCCCC1 [Example 430] | 0.606
CC(C)CN(c1ccc(-c2cc(F)ccc2C(=O)O)cc1NC(=O)Nc1ccc2nccnc2c1)C1CCCCC1 [Example 406] | 7.59
CC(C)CN(CC(C)C)c1ccc(-c2ccccc2-c2nnn[nH]2)cc1NC(=O)Nc1cncnc1 [Example 391] | 280
CC(C)CN(c1cc(F)c(-c2cc(F)ccc2C(=O)O)cc1NC(=O)Nc1cc(C(F)(F)F)no1)C1CCCCC1 [Example 393] | 2.07
Cc1cc(NC(=O)Nc2cc(-c3cc(F)ccc3C(=O)O)ccc2N(CC(C)C)C2CCCCC2)no1 [Example 408] | 10
CC(C)CN(c1c(F)cc(-c2cc(F)ccc2C(=O)O)cc1NC(=O)Nc1ccc(Cl)cc1F)C1CCCCC1 [Example 434] | 3.7
Cc1ccc(NC(=O)Nc2cc(-c3cc(F)ccc3C(=O)O)ccc2N(CCCC(F)(F)F)C2CCCCC2)cc1 [Example 415] | 130
Cc1cc(NC(=O)Nc2cc(-c3cc(F)ccc3C(=O)O)c(F)cc2N(CC(C)C)C2CCCCC2)on1 [Example 376] | 2.15
CC(C)CN(c1c(F)cc(-c2ccccc2-c2nnn[nH]2)cc1NC(=O)Nc1ccc(Cl)cc1F)C1CCCCC1 [Example 436] | 1.16
Cc1ccc(NC(=O)Nc2cc(-c3ccccc3-c3nnn[nH]3)ccc2N(CC(C)(F)F)C2CCCCC2)cc1 [Example 356, 1-(4-(cyclohexyl(2,2-difluoropropyl)amino)-2′-(1H-tetrazol-5-yl)-[1,1′-biphenyl]-3-yl)-3-(p-tolyl)urea] | 4.06
COC(C)(C)CCN(c1ccc(-c2ccccc2C(=O)O)cc1NC(=O)Nc1ccc(C)cc1)C1CCCCC1 [Example 420] | 5250
CCC(CC)N(CC(C)C)c1ccc(-c2ccccc2-c2nnn[nH]2)cc1NC(=O)Nc1ccccc1F [Example 449] | 1.41
CCC(CC)N(CC(C)C)c1ccc(-c2ccccc2-c2nnn[nH]2)cc1NC(=O)Nc1ccc(C)cc1 [Example 444] | 3.21
Cc1cccc(-c2ccc(N(CC(C)C)CC(C)C)c(NC(=O)Nc3ccc(OC(F)(F)F)cc3)c2)c1C(=O)O [Example 309, 4′-(Diisobutylamino)-3-methyl-3′-(3-(4-(trifluoromethoxy)phenyl)ureido)-[1,1′-biphenyl]-2-carboxylic acid] | 4
Cc1ccc(NC(=O)Nc2cc(-c3cc(F)ccc3C(=O)O)c(F)cc2N(CC(C)C)C2C[C@H]3CC[C@@H]2C3)cc1 (stereo partly shown) [Example 410] | 50
Cc1ccc(NC(=O)Nc2cc(-c3cc(F)ccc3C(=O)O)cc(F)c2N(CC(C)C)C2CCCCC2)cc1 [Example 435] | 3

More lines, now with the values ahead:

IC50 [nM] | SMILES
5.75 | CC(C)CN(c1cc(F)c(-c2cc(F)ccc2C(=O)O)cc1NC(=O)Nc1ccc(OC(F)(F)F)cc1)C1CCCCC1 [Example 485]
0.863 | COCCN(c1ccc(-c2ccccc2C(=O)O)cc1NC(=O)Nc1ccc(Cl)cc1F)C1CCCCC1 [Example 456]
3430 | Cc1ccc(NC(=O)Nc2cc(-c3cc(F)ccc3C(=O)O)ccc2N(C2CC2)C2CC2)cc1 [Example 541, 4′-(Dicyclopropylamino)-5-fluoro-3′-(3-(p-tolyl)ureido)-[1,1′-biphenyl]-2-carboxylic acid]
390 | CCOc1ccc(NC(=O)Nc2cc(-c3cc(C)ccc3C(=O)O)ccc2N(CC(C)C)CC(C)C)cc1 [Example 529, 4′-(Diisobutylamino)-3′-(3-(4-ethoxyphenyl)ureido)-5-methyl-[1,1′-biphenyl]-2-carboxylic acid]
7.09 | CCc1ccc(NC(=O)Nc2cc(-c3ccccc3-c3nnn[nH]3)ccc2N(CC(C)C)CC(C)C)cc1 [Example 459]
6.91 | Cc1ccc(NC(=O)Nc2cc(-c3cc(F)ccc3C(=O)O)c(F)cc2N(CC(C)C)C2CCC(F)(F)CC2)cc1 [Example 519, 4′-((4,4-Difluorocyclohexyl)(isobutyl)amino)-2′,5-difluoro-5′-(3-(p-tolyl)ureido)-[1,1′-biphenyl]-2-carboxylic acid]
4.82 | CC(C)CN(c1cc(F)c(-c2ccccc2-c2nnn[nH]2)cc1NC(=O)Nc1ccc2c(c1)OCO2)C1CCC(F)(F)CC1 [Example 532, 1-(Benzo[d][1,3]dioxol-5-yl)-3-(4-((4,4-difluorocyclohexyl)(isobutyl)amino)-6-fluoro-2′-(1H-tetrazol-5-yl)-[1,1′-biphenyl]-3-yl)urea]
590 | COc1ccc(-c2ccc(N(CC(C)C)CC(C)C)c(NC(=O)Nc3ccc(C#N)nc3)c2)c(C(=O)O)c1 [Example 498]
2.4 | C=C(C)CN(c1ccc(-c2ccccc2C(=O)O)cc1NC(=O)Nc1ccc(C)cc1)C1CCCCC1 [Example 460]
3.05 | Cc1ccc(NC(=O)Nc2cc(-c3ccccc3-c3nnn[nH]3)c(F)cc2N(CC(C)C)C2CCC(F)(F)CC2)cc1 [Example 534, 1-(4-((4,4-Difluorocyclohexyl)(isobutyl)amino)-6-fluoro-2′-(1H-tetrazol-5-yl)-[1,1′-biphenyl]-3-yl)-3-(p-tolyl)urea]
120 | Cc1ccc(NC(=O)Nc2cc(-c3cc(Cl)ccc3C(=O)O)ccc2N(CC(C)C)CC(C)C)cc1 [Example 493]
50 | Cc1cccc(NC(=O)Nc2cc(-c3cc(F)ccc3C(=O)O)c(F)cc2N(CC(C)C)C2CCCCC2)c1 [Example 516, 4′-(Cyclohexyl(isobutyl)amino)-2′,5-difluoro-5′-(3-(m-tolyl)ureido)-[1,1′-biphenyl]-2-carboxylic acid]
1220 | Cc1ccc(NC(=O)Nc2cc(-c3cc(F)ccc3C(=O)O)c(F)cc2N(CC(C)C)C2CCCCC2)nn1 [Example 522, 4′-(Cyclohexyl(isobutyl)amino)-2′,5-difluoro-5′-(3-(6-methylpyridazin-3-yl)ureido)-[1,1′-biphenyl]-2-carboxylic acid]
8.02 | Cc1ccc(NC(=O)Nc2cc(-c3ccccc3C(=O)O)c(F)cc2N(CC(C)C)C2CCC(F)(F)CC2)cc1 [Example 533, 4′-((4,4-Difluorocyclohexyl)(isobutyl)amino)-2′-fluoro-5′-(3-(p-tolyl)ureido)-[1,1′-biphenyl]-2-carboxylic acid]
8.44 | Cc1cc(NC(=O)Nc2cc(-c3cc(F)ccc3C(=O)O)c(F)cc2N(CC(C)C)C2CCC(F)(F)CC2)on1 [Example 521, 4′-((4,4-Difluorocyclohexyl)(isobutyl)amino)-2′,5-difluoro-5′-(3-(3-methylisoxazol-5-yl)ureido)-[1,1′-biphenyl]-2-carboxylic acid]
3.46 | CC(C)CN(c1ccc(-c2cc(F)ccc2C(=O)O)cc1NC(=O)Nc1ccc(C#N)nc1)C1CCCCC1 [Example 488]
50 | Cc1ccc(NC(=O)Nc2cc(-c3cccc(OC(F)(F)F)c3C(=O)O)ccc2N(CC(C)C)CC(C)C)cc1 [Example 495]
10 | CC(C)CN(c1cc(F)c(-c2cc(F)ccc2C(=O)O)cc1NC(=O)Nc1ccccc1F)C1CCC(F)(F)CC1 [Example 538, 4′-((4,4-Difluorocyclohexyl)(isobutyl)amino)-2′,5-difluoro-5′-(3-(2-fluorophenyl)ureido)-[1,1′-biphenyl]-2-carboxylic acid]
3.3 | CCOc1ccc(NC(=O)Nc2cc(-c3ccccc3-c3nnn[nH]3)c(F)cc2N(CC(C)C)C2CCC(F)(F)CC2)cc1 [Example 539, 1-(4-((4,4-Difluorocyclohexyl)(isobutyl)amino)-6-fluoro-2′-(1H-tetrazol-5-yl)-[1,1′-biphenyl]-3-yl)-3-(4-ethoxyphenyl)urea]
230 | COc1ccc(-c2ccc(N(CC(C)C)CC(C)C)c(NC(=O)Nc3ccc(C)cc3)c2)c(C(=O)O)c1 [Example 497]
6630 | Cc1cc(NC(=O)Nc2cc(-c3ccccc3-c3nnn[nH]3)ccc2N(C2CC2)C2CC2)no1 [Example 509, 1-(4-(Dicyclopropylamino)-2′-(1H-tetrazol-5-yl)-[1,1′-biphenyl]-3-yl)-3-(5-methylisoxazol-3-yl)urea]
1.11 | C=C(C)CN(c1ccc(-c2ccccc2-c2nnn[nH]2)cc1NC(=O)Nc1ccc(C)cc1)C1CCCCC1 [Example 462]

What follows are molecules tested against IDO (Homo sapiens, UniProt P14902) (assay: LLE_IDO_ABS_DR (IDO assay)). Conditions: not given.
IDO, sequence (P14902 whole entry): as above

IC50 [nM] | SMILES
90 | O=C(Nc1ccc(C2CC2)c(F)c1)Nc1cc(-c2ccccc2-c2nnn[nH]2)ccc1N(CCC(F)(F)F)Cc1ccc(F)cc1C(F)(F)F [Example 352, 1-(4-cyclopropyl-3-fluorophenyl)-3-(4-((4-fluoro-2-(trifluoro-methyl)benzyl) (3,3,3-trifluoropropyl)amino)-2′-(1H-tetrazol-5-yl)-[1,1′-biphenyl]-3-yl)urea]
20 | Cc1ccc(NC(=O)Nc2cc(-c3ccccc3-c3nnn[nH]3)ccc2N(CC(C)C)C2CCOCC2)cc1 [Example 379]
40 | C=CC(c1ccccc1)c1cc(-c2ccccc2-c2nnn[nH]2)cc(NC(=O)Nc2ccccc2F)c1NCC(C)C (stereo not shown) [Example 357, 1-(2-fluorophenyl)-3-(4-(isobutylamino)-5-(1-phenylallyl)-2′-(1H-tetrazol-5-yl)-[1,1′-biphenyl]-3-yl)urea]
5.1 | O=C(Nc1ccc(C2CC2)c(F)c1)Nc1cc(-c2ccccc2-c2nnn[nH]2)ccc1N(CCC(F)(F)F)Cc1ccc(OC(F)(F)F)cc1 [Example 353, 1-(2′-(1H-tetrazol-5-yl)-4-((4-(trifluoromethoxy)benzyl)(3,3,3-trifluoro-propyl)amino)-[1,1′-biphenyl]-3-yl)-3-(4-cyclopropyl-3-fluorophenyl)urea]
